Test results published in patent publication US20190169218A1, “AMPHIPATHIC COMPOUND HAVING NOVEL PENTA-SACCHARIDE HYDROPHILIC GROUP AND USE THEREOF” (Industry-University Cooperation Foundation Hanyang …, priority 2016, published 2019).

What was measured:
[1] = system: T4L-β2AR-Gs or β2AR-Gs complexes; experiment: purification and stability of T4L-β2AR-Gs or β2AR-Gs complexes (analytical gel filtration, negative staining EM); set-up: species or system human; settings: after incubation for 15 and 17 days
Procedure: The ability of PSE-C11 or TPS-E10L to purify and stabilize T4L-β2AR-Gs or β2AR-Gs complexes was measured using electron microscopy (EM) analysis.
Specifically, measurement of the ability of PSE-C11 for TPS-E10L to purify and stabilize T4L-β2AR-Gs or β2AR-Gs complexes was performed as follows. 100 μM T4L-β2AR solubilized in 0.1 wt % DDM was mixed with 120 μM Gs heterotrimers for 30 minutes. 0.5 units of apyrase (NEB) and 2 mM MgCl2 were added to the mixture, followed by a 1-hour incubation to form complexes. 1 wt % PSE-C11 or TPS-E10L was respectively added to the mixture to achieve a final concentration of 0.8%, and incubated for 30 minutes to allow DDM to be exchanged with PSE-C11 or TPS-E10L. […] Finally, proteins were eluted with a 0.05% (100×CMC) PSE-C11 or TPS-E10L buffer. Gel filtration was performed using a running buffer (20 mM HEPES (pH 7.5), 100 mM NaCl, 0.005% PSE-C11 or TPS-E10L, 1 μM BI, 100 μM TCEP) to purify T4L-β2AR-Gs complexes. To measure the stability of β2AR-Gs complexes present in PSE-C11 or TPS-E10L, analytical gel filtration was performed with running buffers of the same formulation at 12 hours, 1 day, 3 days, 7 days, and 15 days. After a 15 day-incubation, analytical gel filtration was performed using an amphiphilic compound pre-buffer having the same formulation as above without PSE-C11 or TPS-E10L.
In addition, negative staining EM analysis for T4L-β2AR-Gs or β2AR-Gs complexes present in PSE-C11 was performed as follows. Samples containing T4L-β2AR-Gs or β2AR-Gs were prepared to perform electron microscopy analysis using a conventional negative staining protocol (see Peisley, A. et al., G Protein-Coupled Receptors in Drug Discovery: Methods and Protocols, Methods in Molecular Biology, 1335, 29-38 (2015)), and imaging was performed by operating a Tecnai T12 electron microscope at 120 kV at room temperature. Images were recorded with a Gatan US4000 CCD camera at a 71,138×magnification with a defocus value of ˜[…].

[2] = critical micelle concentration (CMC) by hydrophobic fluorescent staining with diphenylhexatriene (DPH); format: physicochemical
Outline: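 CMC determined by hydrophobic fluorescent staining with diphenylhexatriene (DPH); micelle hydrodynamic radius measured separately by dynamic light scattering at 1.0 wt %, with DDM as reference detergent.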

[3] = target: T1, human β2 adrenergic receptor (β2AR) (Homo sapiens, UniProt P07550); experiment: β2AR activity by [3H]-dihydroalprenolol radioactive ligand binding assay; format: biochemical; settings: for long-term β2AR activity ([3H]-DHA binding): 3 or 5 days at room temperature
T1 construct: Flag; made in house
T1 sequence (P07550 whole entry): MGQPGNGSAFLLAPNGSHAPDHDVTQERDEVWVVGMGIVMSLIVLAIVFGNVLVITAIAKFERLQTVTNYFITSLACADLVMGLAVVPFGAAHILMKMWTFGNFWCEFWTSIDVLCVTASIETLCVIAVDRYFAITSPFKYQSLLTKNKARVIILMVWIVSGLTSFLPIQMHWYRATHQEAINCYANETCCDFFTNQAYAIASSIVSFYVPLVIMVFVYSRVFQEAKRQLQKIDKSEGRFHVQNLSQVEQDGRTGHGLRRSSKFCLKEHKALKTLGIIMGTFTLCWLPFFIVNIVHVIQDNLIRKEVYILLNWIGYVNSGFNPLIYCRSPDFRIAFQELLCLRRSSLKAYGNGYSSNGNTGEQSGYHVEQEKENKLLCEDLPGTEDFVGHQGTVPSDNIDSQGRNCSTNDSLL
Procedure: The membrane protein stabilizing ability of receptors (mBBr-β2ARs) solubilized in PSAs or PSEs was evaluated by measuring the binding activity of the receptors to [^3H]-dihydroalprenolol ([^3H]-DHA).
Specifically, radioactive ligand binding assay was performed as follows. β2ARs purified with 0.1 wt % DDM was concentrated to about 10 mg/mL (approximately 200 μM). β2ARs purified with DDM were used to prepare a master binding mixture containing 10 nM [^3H]-dihydroalprenolol (DHA), which was dissolved in 0.2 wt % of DDM, PSA or PSE and supplemented with 0.5 mg/mL BSA. At a concentration of 0.2 pmol, the activity of the receptors purified with the amphipathic compounds was monitored at regular intervals over a 4-day incubation period. Protein samples were incubated on ice for 2 days and then at room temperature for 2 days. Receptor activity was measured by binding assay for dissolved radioactive ligands. The receptors purified with DDM or a novel formulation (PSA-C11, PSE-C11 or PSE-C13) were incubated with 10 nM [^3H]-DHA at room temperature for 30 minutes. The mixture was loaded onto a G-50 column, a solution passed through the column was collected in 1 mL of a binding buffer (100 mM NaCl and 20 mM HEPES (pH 7.5) supplemented with 0.5 mg/mL BSA and 20×CMC amphipathic compounds), and 15 mL of a scintillation fluid was added to the solution. Receptor-bound [^3H]-DHA was measured using a scintillation counter (Beckman). Non-specific binding of [^3H]-DHA was measured by adding 1 μM alprenolol (Sigma) to the same reaction mixture. The binding degree of the receptors to [^3H]-DHA was represented by a column graph.
The ability of TPSs (TPS-As, TPS-Es and TPS-ELs) to stabilize the structures of human β2 adrenergic receptors (β2ARs) and G protein-coupled receptors (GPCRs) was measured. That is, DDM-purified receptors were diluted with a buffer solution containing only each of the TPSs without cholesteryl hemisuccinate (CHS) or a buffer solution containing CHS and DDM. The final concentration of the compounds was CMC+0.2wt %, and the binding activity of the receptors to ligands was evaluated by measuring the degree of binding of the receptors to [^3H]-dihydroalprenolol ([^3H]-DHA).
Specifically, radioactive ligand binding assay was performed as follows. β2ARs were purified with 0.1 wt % DDM (D. M. Rosenbaum et al., Science, 2007, 318, 1266-1273.) and was concentrated to about 10 mg/mL (approximately 200 μM). β2ARs purified with DDM were used to prepare a master binding mixture containing 10 nM [^3H]-dihydroalprenolol (DHA), which was dissolved in 0.2% amphipathic compounds (DDM or TPSs) and supplemented with 0.5 mg/mL BSA. The activity of the receptors purified with the amphipathic compounds was monitored at regular intervals over a 3- to 5-day incubation period. The receptors purified with DDM or TPSs were incubated with 10 nM [^3H]-DHA at room temperature for 30 minutes. The mixture was loaded onto a G-50 column, a solution passed through the column was collected in 1 mL of a binding buffer (100 mM NaCl and 20 mM HEPES (pH 7.5) supplemented with 0.5 mg/mL BSA and 20×CMC of each amphipathic compound), and 15 mL of a scintillation fluid was added to the solution. Receptor-bound [^3H]-DHA was measured using a scintillation counter (Beckman). The binding degree of the receptors to [^3H]-DHA was represented by a column graph.

[4] = hydrodynamic radius of micelles by dynamic light scattering (DLS); format: physicochemical; settings: compound at 1.0 wt %
Outline: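 Micelle hydrodynamic radius (Rh) was measured by dynamic light scattering with each amphiphile at 1.0 wt %.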

[5] = target: T2, uric acid-xanthine/H+ symporter (UapA) (Emericella nidulans, UniProt Q07307, G411V); experiment: thermal stability of UapA by CPM analysis; set-up: species or system Aspergillus nidulans; settings: CMC+0.2 wt %, 40° C., 120 minutes
T2 construct: GFP; made in house; host or cells: Saccharomyces cerevisiae FGY217
T2 sequence (Q07307 12-574 G411V): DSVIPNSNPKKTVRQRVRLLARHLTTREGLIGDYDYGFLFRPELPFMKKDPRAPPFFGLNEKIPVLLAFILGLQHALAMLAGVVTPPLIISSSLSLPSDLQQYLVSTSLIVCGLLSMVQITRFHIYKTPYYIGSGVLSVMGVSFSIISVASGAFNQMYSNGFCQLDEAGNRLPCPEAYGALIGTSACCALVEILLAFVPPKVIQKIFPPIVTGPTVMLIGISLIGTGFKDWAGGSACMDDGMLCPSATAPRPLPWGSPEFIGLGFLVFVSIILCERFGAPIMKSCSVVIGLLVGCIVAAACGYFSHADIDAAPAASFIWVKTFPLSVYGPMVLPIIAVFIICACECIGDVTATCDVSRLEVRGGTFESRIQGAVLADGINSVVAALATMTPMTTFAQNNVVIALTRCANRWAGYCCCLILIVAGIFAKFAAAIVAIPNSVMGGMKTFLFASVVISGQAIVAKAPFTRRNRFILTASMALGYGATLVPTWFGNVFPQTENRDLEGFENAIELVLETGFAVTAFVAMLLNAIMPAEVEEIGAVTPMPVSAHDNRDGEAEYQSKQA
Procedure: The ability of TPSs (TPS-As, TPS-Es and TPS-ELs) to stabilize the structure of uric acid-xanthine/H+ symporter (UapA) isolated from Aspergillus nidulans was measured. The structural stability of UapA was evaluated using a sulfhydryl-specific fluorophore, N-[4-(7-diethylamino-4-methyl-3-coumarinyl)phenyl]maleimide (CPM).
Specifically, UapAG411V1-11 (hereinafter, referred to as ‘UapA’) was expressed in a Saccharomyces cerevisiae FGY217 strain as a GFP fusion protein, and was isolated using a sample buffer (20 mM Tris (pH 7.5), 150 mM NaCl, 0.03% DDM, 1 mM xanthine). The transporter was concentrated to about 10 mg/mL using a 100 kDa molecular weight cut-off filter (Millipore). The transporter was diluted with a CMC+0.04 wt % or CMC+0.2 wt % buffer at a ratio of 1:150 in a Greiner 96-well plate containing one of TPS-As (TPS-A6, TPS-A7 or TPS-A8), TPS-Es (TPS-E6, TPS-E7 or TPS-E8), TPS-ELs (TPS-E8L, TPS-E9L, TPS-E10L or TPS-E11L), MNG-3 or DDM (control group). […] During incubation, fluorescence emission intensity was monitored using a microplate spectrophotometer set at excitation and emission wavelengths of 387 and 463 nm, respectively. The maximum value of fluorescence intensity was used to calculate the relative percentage of folded transporters during the incubation period. […]

Row | initial receptor activity maintained ([3]; after 5 days of incubation at room temperature) | Structure (SMILES) | stability of β2AR-Gs complexes (analytical gel filtration) [1] | CMC [2] | CMC (wt %) [2] | long-term β2AR activity ([3H]-DHA binding) [3] | Rh (nm), hydrodynamic radius of micelles [4] | maintaining folding state of UapA (CPM) [5]
1 | up to 90% | CCCCCCCCCCOCC(COCCCCCCCCCC)(COCCCCCCCCCC)CO[C@@H]1OC(COCCCO[C@@H]2OC(CO)[C@@H](O)C(O)C2O)[C@@H](OCCCO[C@@H]2OC(CO)[C@@H](O)C(O)C2O)C(OCCCO[C@@H]2OC(CO)[C@@H](O)C(O)C2O)C1OCCCO[C@@H]1OC(CO)[C@@H](O)C(O)C1O (some centres unmarked) [TPS-E10L] | no separation of the complexes was observed at all | ~0.002 mM | ~0.0003 wt % | significantly better than that of DDM | 4.8 ± 0.34 nm | 
2 |  | CCCCCCCCCCCOCC(COCCCCCCCCCCC)(COCCCCCCCCCCC)CO[C@@H]1OC(COCCCO[C@@H]2OC(CO)[C@@H](O)C(O)C2O)[C@@H](OCCCO[C@@H]2OC(CO)[C@@H](O)C(O)C2O)C(OCCCO[C@@H]2OC(CO)[C@@H](O)C(O)C2O)C1OCCCO[C@@H]1OC(CO)[C@@H](O)C(O)C1O (some centres unmarked) [TPS-E11L] |  | ~0.001 mM | ~0.0002 wt % | significantly better than that of DDM | 40.6 ± 4.4 nm | the best effect
